Measured values reported in a compilation of properties of binary mixtures (doi:10.1021/je950317s).

Assay: excess molar enthalpy (molar enthalpy of mixing); xn = mol fraction of the nth substance listed
Conditions: 100 kPa

Cl/C=C\Cl + CCCCCCCCCC
293.15 K
Conditions	excess molar enthalpy [kcal/mol]
x1 = 0.2397	0.171
x1 = 0.4025	0.253
x1 = 0.6996	0.239
x1 = 0.7635	0.211
x1 = 0.9492	0.0662

Cl/C=C\Cl + CC(C)CC(C)(C)C
293.15 K
Conditions	excess molar enthalpy [kcal/mol]
x1 = 0.2119	0.142
x1 = 0.3627	0.209
x1 = 0.4911	0.228
x1 = 0.5812	0.226
x1 = 0.6622	0.21
x1 = 0.7314	0.188
x1 = 0.8061	0.155
x1 = 0.8696	0.116
x1 = 0.9434	0.0566

Cl/C=C/Cl + CCCCCCCCCCCCCCCC
293.15 K
Conditions	excess molar enthalpy [kcal/mol]
x1 = 0.0735	0.0351
x1 = 0.1873	0.0944
x1 = 0.3532	0.167
x1 = 0.4326	0.192
x1 = 0.5287	0.212
x1 = 0.5819	0.223
x1 = 0.6155	0.223
x1 = 0.6514	0.22
x1 = 0.7106	0.214
x1 = 0.7294	0.208
x1 = 0.7428	0.205
x1 = 0.7698	0.197
x1 = 0.7846	0.194
x1 = 0.8008	0.184
x1 = 0.8578	0.152
x1 = 0.8776	0.137
x1 = 0.8951	0.125
x1 = 0.9485	0.071
x1 = 0.9795	0.0306

Cl/C=C\Cl + CCCCCCCCCCCCCC
293.15 K
Conditions	excess molar enthalpy [kcal/mol]
x1 = 0.3157	0.229
x1 = 0.5126	0.327
x1 = 0.638	0.336
x1 = 0.7787	0.288
x1 = 0.8831	0.194
x1 = 0.923	0.139
x1 = 0.969	0.0657

Cl/C=C/Cl + CCCCCCCCCC
293.15 K
Conditions	excess molar enthalpy [kcal/mol]
x1 = 0.0575	0.022
x1 = 0.1583	0.0636
x1 = 0.2175	0.0865
x1 = 0.2316	0.0944
x1 = 0.2585	0.106
x1 = 0.3396	0.132
x1 = 0.3972	0.152
x1 = 0.4202	0.16
x1 = 0.4829	0.168
x1 = 0.5312	0.179
x1 = 0.5522	0.178
x1 = 0.5739	0.175
x1 = 0.6031	0.175
x1 = 0.6375	0.178
x1 = 0.6555	0.176
x1 = 0.6923	0.165
x1 = 0.6977	0.166
x1 = 0.7284	0.163
x1 = 0.7393	0.161
x1 = 0.7653	0.148
x1 = 0.7812	0.144
x1 = 0.8229	0.127
x1 = 0.8478	0.116
x1 = 0.9335	0.0602
x1 = 0.9785	0.0213

Cl/C=C/Cl + CC(C)CC(C)(C)C
293.15 K
Conditions	excess molar enthalpy [kcal/mol]
x1 = 0.1328	0.0519
x1 = 0.1885	0.0681
x1 = 0.2561	0.0923
x1 = 0.3253	0.111
x1 = 0.415	0.124
x1 = 0.4532	0.13
x1 = 0.4584	0.134
x1 = 0.5167	0.141
x1 = 0.5332	0.138
x1 = 0.5571	0.138
x1 = 0.5777	0.139
x1 = 0.6055	0.139
x1 = 0.6468	0.135
x1 = 0.6554	0.133
x1 = 0.6658	0.131
x1 = 0.6824	0.13
x1 = 0.6926	0.127
x1 = 0.8092	0.0997
x1 = 0.8404	0.0875
x1 = 0.8988	0.0619
x1 = 0.9517	0.033

Cl/C=C/Cl + CCCCCCC
293.15 K
Conditions	excess molar enthalpy [kcal/mol]
x1 = 0.1911	0.081
x1 = 0.2074	0.0851
x1 = 0.2453	0.102
x1 = 0.2905	0.111
x1 = 0.3272	0.128
x1 = 0.352	0.129
x1 = 0.3757	0.137
x1 = 0.4118	0.151
x1 = 0.4157	0.15
x1 = 0.452	0.158
x1 = 0.4756	0.158
x1 = 0.4978	0.161
x1 = 0.5334	0.162
x1 = 0.5472	0.163
x1 = 0.5627	0.165
x1 = 0.5821	0.162
x1 = 0.6074	0.164
x1 = 0.6429	0.157
x1 = 0.6534	0.156
x1 = 0.7038	0.145
x1 = 0.7761	0.125
x1 = 0.8005	0.117
x1 = 0.907	0.0655
x1 = 0.9624	0.0301

Cl/C=C/Cl + CCCCCCCCCCCCCC
293.15 K
Conditions	excess molar enthalpy [kcal/mol]
x1 = 0.1129	0.05
x1 = 0.1792	0.0877
x1 = 0.3112	0.14
x1 = 0.3404	0.153
x1 = 0.3809	0.165
x1 = 0.4345	0.181
x1 = 0.4786	0.193
x1 = 0.5019	0.2
x1 = 0.535	0.201
x1 = 0.5634	0.205
x1 = 0.5851	0.204
x1 = 0.6008	0.207
x1 = 0.6211	0.209
x1 = 0.6352	0.208
x1 = 0.6675	0.204
x1 = 0.6789	0.202
x1 = 0.7008	0.199
x1 = 0.7106	0.198
x1 = 0.7314	0.191
x1 = 0.747	0.188
x1 = 0.757	0.185
x1 = 0.7762	0.178
x1 = 0.8541	0.141
x1 = 0.8757	0.127
x1 = 0.9005	0.108
x1 = 0.9374	0.0746

Cl/C=C\Cl + CCCCCCCCCCCCCCCC
293.15 K
Conditions	excess molar enthalpy [kcal/mol]
x1 = 0.5093	0.332
x1 = 0.6348	0.36
x1 = 0.714	0.353
x1 = 0.7791	0.326
x1 = 0.8308	0.282
x1 = 0.8823	0.228
x1 = 0.9221	0.168
x1 = 0.9676	0.0798

Cl/C=C\Cl + CCCCCCCCCCCC
293.15 K
Conditions	excess molar enthalpy [kcal/mol]
x1 = 0.2693	0.192
x1 = 0.4431	0.283
x1 = 0.6609	0.281
x1 = 0.7922	0.232
x1 = 0.851	0.191
x1 = 0.9026	0.139
x1 = 0.9588	0.0679

Cl/C=C\Cl + CCCCCCC
313.15 K
Conditions	excess molar enthalpy [kcal/mol]
x1 = 0.0572	0.0485
x1 = 0.2014	0.148
x1 = 0.3465	0.218
x1 = 0.4595	0.245
x1 = 0.5694	0.24
x1 = 0.6673	0.221
x1 = 0.7579	0.183
x1 = 0.8409	0.137
x1 = 0.9317	0.0652

Cl/C=C/Cl + CCCCCCCCCCCC
293.15 K
Conditions	excess molar enthalpy [kcal/mol]
x1 = 0.086	0.0404
x1 = 0.1183	0.05
x1 = 0.1952	0.0913
x1 = 0.2658	0.115
x1 = 0.354	0.151
x1 = 0.4354	0.175
x1 = 0.5034	0.19
x1 = 0.5297	0.19
x1 = 0.5654	0.193
x1 = 0.5792	0.19
x1 = 0.637	0.19
x1 = 0.6708	0.187
x1 = 0.6712	0.19
x1 = 0.6857	0.185
x1 = 0.7145	0.182
x1 = 0.7213	0.179
x1 = 0.7547	0.173
x1 = 0.7676	0.166
x1 = 0.8276	0.14
x1 = 0.8799	0.107
x1 = 0.9289	0.0707
x1 = 0.9652	0.038
